Experimental data published in PubChem BioAssay (NCI).
“And” between values parts separate entries of the source, which are not always exact repeats. Equal values may be shown once.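 Five compound concentrations were applied to cells in 96-well plates for 48 hours; endpoints were derived by simple linear interpolation of the resulting dose-response curve. GI50: concentration for 50% inhibition of growth. Definition used: TGI = concentration required for complete inhibition of growth.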

Columns and labels:
Assay in all cases: NCI-60 cell line screen, 48 h
TK-10 renal = tested on: TK-10 renal
HCC-2998 colon = tested on: HCC-2998 colon
SNB-75 CNS = tested on: SNB-75 CNS
RPMI-8226 leukemia = tested on: RPMI-8226 leukemia
LOX IMVI melanoma = tested on: LOX IMVI melanoma
UO-31 renal = tested on: UO-31 renal
HT29 colon = tested on: HT29 colon
NCI-H226 lung = tested on: NCI-H226 lung
SF-539 CNS = tested on: SF-539 CNS
PC-3 prostate = tested on: PC-3 prostate

Row | SMILES | TGI (TK-10 renal) [µM] | TGI (HCC-2998 colon) | TGI (SNB-75 CNS) [µM] | TGI (RPMI-8226 leukemia) | TGI (LOX IMVI melanoma) [µM] | TGI (UO-31 renal) [µM] | TGI (HT29 colon) [µM] | TGI (NCI-H226 lung) [µM] | TGI (SF-539 CNS) [µM] | TGI (PC-3 prostate) [µM] | GI50 (PC-3 prostate) [µM] | GI50 (TK-10 renal) [µM] | GI50 (SF-539 CNS) [µM] | GI50 (RPMI-8226 leukemia) [µM] | GI50 (LOX IMVI melanoma) [µM] | GI50 (UO-31 renal) | GI50 (HCC-2998 colon) [µM] | GI50 (NCI-H226 lung) [µM] | GI50 (HT29 colon) [µM] | GI50 (SNB-75 CNS) [µM]
1 | CCC(O)C1Cc2c(C)cc3c(c2O1)C(=O)c1ccccc1C3=O (stereo not drawn) | > 100 | > 100 µM | > 100 | 68 µM | 93.7 | 61.2 | > 100 | > 100 | – | – | – | – | – | – | – | – | – | – | – | –
2 | CCOC(=O)NC/C=C/COC1CCCCO1 (stereo not drawn) | > 100 | > 100 µM | > 100 | > 100 µM | – | > 100 | – | > 100 | > 100 | – | – | – | – | – | – | – | – | – | – | –
3 | COc1cc(O)c2c(c1)O[C@@H]1OCC[C@H]21 | > 100 | > 100 µM | > 100 | > 100 µM | > 100 | > 100 | > 100 | > 100 | > 100 | – | – | – | – | – | – | – | – | – | – | –
4 | Cc1ccc(NC(=O)c2cc3ccccc3c(N=Nc3cc(S(=O)(=O)O)ccc3O)c2O)c(C)c1 | > 100 | – | > 100 | > 100 µM | > 100 | 34.1 | 58.3 | > 100 | – | > 100 | – | – | – | – | – | – | – | – | – | –
5 | COc1ccc(NC(=O)CC/C(CC(=O)c2ccco2)=N/NC(N)=S)cc1 | > 100 | > 100 µM | – | > 100 µM | > 100 | > 100 | > 100 | > 100 | > 100 | – | – | – | – | – | – | – | – | – | – | –
6 | COc1ccc(Sc2nc3cc(N)cc(N)c3nc2-c2ccccc2)cc1 | > 100 | – | – | 84.4 µM | > 100 | > 100 | – | – | > 100 | > 100 | 6.39 | 30.6 | 10 | 3.96 | 51 | > 100 µM | – | – | – | –
7 | Nc1nc(Cl)cc(NCC(O)CO)n1 (stereo not drawn) | > 100 | > 100 µM | > 100 | > 100 µM | > 100 | > 100 | > 100 | > 100 | > 100 | – | – | – | – | – | – | – | – | – | – | –
8 | COc1cc2c(cc1OC)CC(=O)Nc1cc(OC)c(OC)cc1CC2 | > 100 | > 100 µM | > 100 | > 20 µM | > 100 | > 100 | > 100 | > 100 | 97.2 | – | – | – | – | – | – | – | – | – | – | –
9 | N#CCCCCCOCCOCCOCCOCCOCCCCCC#N | > 100 | > 100 µM | > 100 | – | > 100 | > 100 | > 100 | > 100 | – | – | – | – | – | – | – | – | – | – | – | –
10 | O=C(c1ccccc1)C(c1ccccc1)C1(O)C(=O)Nc2ccc([N+](=O)[O-])cc21 (stereo not drawn) | > 100 | > 100 µM | > 100 | > 100 µM | > 100 | > 100 | – | > 100 | > 100 | – | – | – | – | – | – | – | – | – | – | –
11 | COc1ccc(Cc2c(=O)[nH]nc3ccccc23)cc1 | > 100 | > 100 µM | > 100 | > 100 µM | > 100 | > 100 | > 100 | > 100 | > 100 | – | – | – | – | – | – | – | – | – | – | –
12 | Cc1nn2c(nc1=O)sc1ccc3ccccc3c12 | > 100 | > 100 µM | > 100 | – | > 100 | > 100 | > 100 | > 100 | > 100 | – | – | – | – | – | – | – | – | – | – | –
13 | CCCCCCCCCCCC(=O)N1CCN(C(C)=O)CC1 | 72.1 | 28.1 µM | – | 35.7 µM | > 100 | 42.6 | – | 77.3 | 32.4 | 34.5 | 17.8 | 31 | 18 | 16.8 | 34.4 | 18.7 µM | 14.8 | 27.9 | – | –
14 | CC(=O)Nc1c(I)c(NC(C)=O)c(I)c(C(=O)O)c1I | > 100 | > 100 µM | – | > 100 µM | > 100 | > 100 | > 100 | > 100 | – | > 100 | > 100 | > 100 | – | > 100 | > 100 | > 100 µM | > 100 | > 100 | > 100 | –
15 | CC1(Br)CC2OC3(Br)C=CC(C)(O)C2(CC1=O)C3(C)C (stereo not drawn) | > 100 | > 100 µM | > 100 | > 100 µM | > 100 | > 100 | > 100 | > 100 | > 100 | – | – | – | – | – | – | – | – | – | – | –
16 | O=[N+]([O-])c1cc([N+](=O)[O-])c(/C=C/c2ccc(Cl)c(Cl)c2)cc1/C=C/c1ccc(Cl)c(Cl)c1 | > 100 | > 100 µM | > 100 | 50.3 µM | 61.6 | 36.1 | 63.7 | 66.3 | 51.5 | – | – | – | – | – | – | – | – | – | – | –

Row | SMILES | TGI (TK-10 renal) [µM] | TGI (HCC-2998 colon) | TGI (SNB-75 CNS) [µM] | TGI (RPMI-8226 leukemia) | TGI (LOX IMVI melanoma) [µM] | TGI (UO-31 renal) [µM] | TGI (HT29 colon) [µM] | TGI (NCI-H226 lung) [µM] | TGI (SF-539 CNS) [µM] | TGI (PC-3 prostate) [µM] | GI50 (PC-3 prostate) [µM] | GI50 (TK-10 renal) [µM] | GI50 (SF-539 CNS) [µM] | GI50 (RPMI-8226 leukemia) [µM] | GI50 (LOX IMVI melanoma) [µM] | GI50 (UO-31 renal) | GI50 (HCC-2998 colon) [µM] | GI50 (NCI-H226 lung) [µM] | GI50 (HT29 colon) [µM] | GI50 (SNB-75 CNS) [µM]
17 | O=C(OC1CCC2OOC1O2)c1ccc([N+](=O)[O-])cc1 (stereo not drawn) | > 100 | > 100 µM | > 100 | > 100 µM | > 100 | > 100 | > 100 | > 100 | > 100 | – | – | – | – | – | – | – | – | – | – | –
18 | CCCCNC(=O)C1C(=O)N(CCCC)C(=O)/C1=N\N (stereo not drawn) | > 100 | > 100 µM | > 100 | > 100 µM | > 100 | > 100 | > 100 | > 100 | > 100 | – | – | – | – | – | – | – | – | – | – | –
19 | O=C(NC(=O)c1ccccc1[N+](=O)[O-])Nc1ccc(Oc2ncc(Cl)cn2)c([N+](=O)[O-])c1 | > 100 | – | 0.313 | > 100 µM | > 100 | > 95.7 | 3.31 | 1.07 | 8.38 | > 100 | – | – | – | – | – | – | – | – | – | –
20 | C(=N\Nc1ccccc1)/c1nc2ccccc2nc1/C=N/Nc1ccccc1 | 31.6 | 25.3 µM | 31.4 | – | 22.1 | > 84.6 | 23.5 | 34.3 | 30.8 | – | – | – | – | – | – | – | – | – | – | –
21 | c1ccc2cc(NCNc3ccc4ccccc4c3)ccc2c1 | > 67.6 | – | 30.9 | 29.1 µM | 25.9 | 41.6 | 41.3 | 46.5 | 71.3 | > 58.3 | – | – | – | – | – | – | – | – | – | –
22 | COc1cc2c(c(OC)c1OC)-c1ccc(OC)c(=O)cc1[C@@H](NC(C)=O)CC2 | > 100 | 1.01 µM and 7.43 µM | – | > 100 µM and 217 µM | > 100 | > 625 | – | – | – | > 100 | – | > 100 | – | – | – | 4.74 µM and 1.09 µM and 1.33 µM | – | – | – | –
23 | CCOC(=O)C(N=C(c1ccccc1)c1ccccc1)N(C(=O)OC(C)(C)C)C(=O)OC(C)(C)C (stereo not drawn) | > 100 | > 100 µM | > 100 | > 100 µM | – | > 100 | > 100 | > 100 | > 100 | – | – | – | – | – | – | – | – | – | – | –
24 | COc1ccc2c(O)c(/C=C3\N=Nc4ccccc43)oc2c1C[C@@H]1CCNC[C@H]1F | 29.4 | – | 21.5 | 30.5 µM | 2.99 | 22.1 | 11 | 31.9 | 3.06 | 15.4 | 3.26 | 15 | 1.6 | 7.05 | 1.6 | 7.55 µM | – | 13 | 2.7 | 8.46
25 | CC(N)(/C=C/c1ccccc1)C(=O)O (stereo not drawn) | > 100 | – | – | > 100 µM | > 100 | > 100 | > 100 | > 100 | > 100 | > 100 | – | – | – | – | – | – | – | – | – | –
26 | CCOC(=O)Cc1csc(Nc2ccc(OCC)cc2)n1 | > 100 | > 100 µM | > 100 | > 100 µM | – | > 100 | > 100 | > 100 | > 100 | – | – | – | – | – | – | – | – | – | – | –
27 | O=c1c2ccccc2nc(/C=C(\O)c2ccncc2)n1-c1ccc(Cl)cc1 | > 100 | – | 61.7 | > 100 µM | – | > 100 | > 100 | > 100 | – | – | – | – | – | – | – | – | – | – | – | –
28 | O=C1[C@@H]2C(c3ccccc3[N+](=O)[O-])=[N+](c3ccccc3)O[C@@H]2C(=O)N1c1ccc(Cc2ccc(N3C(=O)[C@H]4C(c5ccccc5[N+](=O)[O-])=[N+](c5ccccc5)O[C@H]4C3=O)cc2)cc1 | > 100 | > 100 µM | > 100 | > 100 µM | > 100 | > 100 | > 100 | > 100 | > 100 | – | – | – | – | – | – | – | – | – | – | –
29 | NC1CCCCC1N.O=[Se]([O-])[O-].[Pt+4] (stereo not drawn) | > 100 | 11.1 µM | > 100 | > 37.1 µM | > 100 | 16.7 | 17.5 | 29.3 | 20.6 | – | – | 28.4 | 1.18 | < 0.0336 | 0.677 | 1.05 µM | 2.98 | 6.42 | 0.169 | 66.3
30 | Nc1nc(N)c(-c2ccccc2)c(C(=O)Nc2ccccc2)n1 | > 100 | – | > 100 | > 100 µM | > 100 | > 100 | > 100 | > 100 | > 100 | – | – | – | – | – | – | – | – | – | – | –
31 | C#CCN(Cc1nc2cc(C(F)(F)F)ccc2nc1-c1ccccc1)c1ccc(C)cc1 | > 39.6 | – | > 25.2 | > 76.3 µM | > 48.5 | 45.5 | > 32 | 33 | > 100 | > 100 | > 62.6 | 15.4 | 24.3 | > 48.5 | 24.8 | 13.2 µM | – | 8.07 | 12.4 | –
32 | O=C(NCc1cccnc1)C1COc2cc(-c3cc(=O)c4ccccc4o3)ccc2O1 (stereo not drawn) | > 83.4 | > 100 µM | 28.8 | > 100 µM | > 63.1 | > 100 | > 100 | > 57.1 | 16.4 | – | – | – | – | – | – | – | – | – | – | –
